How the values were obtained:
FLK-1 receptor = target: T1, FLK-1 receptor (Mus musculus, UniProt P35918); assay: FLK-1 ELISA (kinase activity of the FLK-1 receptor in FLK-1/NIH3T3 cells, VEGF stimulated); assay type: cell-based; set-up: concentration or dose not given beside the values
T1 construct: expressed in transfected cells; host or cells: NIH3T3 C7#3
Method in brief: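 NIH3T3 C7#3 cells expressing FLK-1 were seeded at 25.000 cells/well, serum-starved overnight in 0.1% FBS, then treated with compound for two hours at 37°C (final DMSO 0.5%) before VEGF stimulation. Receptor was captured on anti-rabbit IgG-coated ELISA plates bearing affinity-purified anti-FLK-1 antiserum.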

PDGF-R = PDGF-R (Homo sapiens, UniProt P09619); assay: PDGF-R ELISA; assay type: cell-based
Text: A PDGF-R ELISA is described in International Patent Publication No. WO 96/40116, published December 19, 1996 by Tang et al.

MET = MET biochemical kinase assay; set-up: species or system human; concentration or dose not given beside the values
Method in brief: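 Immunocaptured MET autophosphorylation, read colorimetrically (TMB) via HRP anti-phosphotyrosine antibody. Kinase reaction initiated with buffer containing ATP and divalent metals after compound addition to plate-bound receptor from lysates.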

T1 sequence (P35918 20-1345): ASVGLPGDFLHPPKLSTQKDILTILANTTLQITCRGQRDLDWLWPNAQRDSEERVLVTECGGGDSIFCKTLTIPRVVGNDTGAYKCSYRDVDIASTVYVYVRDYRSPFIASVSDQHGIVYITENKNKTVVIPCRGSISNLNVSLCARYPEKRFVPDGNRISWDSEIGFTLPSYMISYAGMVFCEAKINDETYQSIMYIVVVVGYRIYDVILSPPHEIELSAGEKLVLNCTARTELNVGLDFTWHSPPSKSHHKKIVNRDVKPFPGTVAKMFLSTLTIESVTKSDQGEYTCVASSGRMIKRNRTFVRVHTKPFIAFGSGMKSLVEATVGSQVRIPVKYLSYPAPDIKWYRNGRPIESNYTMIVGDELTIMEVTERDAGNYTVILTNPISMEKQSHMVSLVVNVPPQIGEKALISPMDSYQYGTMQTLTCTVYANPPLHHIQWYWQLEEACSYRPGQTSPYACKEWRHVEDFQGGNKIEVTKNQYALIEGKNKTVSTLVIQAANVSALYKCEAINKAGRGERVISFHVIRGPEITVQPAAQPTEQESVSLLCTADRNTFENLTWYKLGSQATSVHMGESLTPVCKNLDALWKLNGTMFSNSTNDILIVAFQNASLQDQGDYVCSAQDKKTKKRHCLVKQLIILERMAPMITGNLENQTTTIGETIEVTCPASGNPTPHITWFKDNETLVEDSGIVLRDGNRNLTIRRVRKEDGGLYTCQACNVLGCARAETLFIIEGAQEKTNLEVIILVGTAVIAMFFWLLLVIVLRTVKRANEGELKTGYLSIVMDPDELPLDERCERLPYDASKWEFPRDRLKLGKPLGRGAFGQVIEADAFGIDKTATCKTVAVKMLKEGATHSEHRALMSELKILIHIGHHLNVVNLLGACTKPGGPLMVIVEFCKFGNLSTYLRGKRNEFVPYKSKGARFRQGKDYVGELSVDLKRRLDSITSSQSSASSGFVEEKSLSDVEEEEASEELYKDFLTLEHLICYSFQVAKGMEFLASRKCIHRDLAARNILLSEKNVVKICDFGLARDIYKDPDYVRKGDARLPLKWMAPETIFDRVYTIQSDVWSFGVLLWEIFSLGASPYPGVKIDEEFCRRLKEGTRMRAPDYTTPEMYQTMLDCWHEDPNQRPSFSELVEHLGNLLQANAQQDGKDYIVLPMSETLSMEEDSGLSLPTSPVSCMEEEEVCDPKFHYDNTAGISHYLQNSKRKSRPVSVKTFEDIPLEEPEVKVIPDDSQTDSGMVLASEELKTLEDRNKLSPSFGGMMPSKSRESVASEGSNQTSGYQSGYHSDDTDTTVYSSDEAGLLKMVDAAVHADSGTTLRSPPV
Chain of PDGF-R (P09619 33-1106, species assumed): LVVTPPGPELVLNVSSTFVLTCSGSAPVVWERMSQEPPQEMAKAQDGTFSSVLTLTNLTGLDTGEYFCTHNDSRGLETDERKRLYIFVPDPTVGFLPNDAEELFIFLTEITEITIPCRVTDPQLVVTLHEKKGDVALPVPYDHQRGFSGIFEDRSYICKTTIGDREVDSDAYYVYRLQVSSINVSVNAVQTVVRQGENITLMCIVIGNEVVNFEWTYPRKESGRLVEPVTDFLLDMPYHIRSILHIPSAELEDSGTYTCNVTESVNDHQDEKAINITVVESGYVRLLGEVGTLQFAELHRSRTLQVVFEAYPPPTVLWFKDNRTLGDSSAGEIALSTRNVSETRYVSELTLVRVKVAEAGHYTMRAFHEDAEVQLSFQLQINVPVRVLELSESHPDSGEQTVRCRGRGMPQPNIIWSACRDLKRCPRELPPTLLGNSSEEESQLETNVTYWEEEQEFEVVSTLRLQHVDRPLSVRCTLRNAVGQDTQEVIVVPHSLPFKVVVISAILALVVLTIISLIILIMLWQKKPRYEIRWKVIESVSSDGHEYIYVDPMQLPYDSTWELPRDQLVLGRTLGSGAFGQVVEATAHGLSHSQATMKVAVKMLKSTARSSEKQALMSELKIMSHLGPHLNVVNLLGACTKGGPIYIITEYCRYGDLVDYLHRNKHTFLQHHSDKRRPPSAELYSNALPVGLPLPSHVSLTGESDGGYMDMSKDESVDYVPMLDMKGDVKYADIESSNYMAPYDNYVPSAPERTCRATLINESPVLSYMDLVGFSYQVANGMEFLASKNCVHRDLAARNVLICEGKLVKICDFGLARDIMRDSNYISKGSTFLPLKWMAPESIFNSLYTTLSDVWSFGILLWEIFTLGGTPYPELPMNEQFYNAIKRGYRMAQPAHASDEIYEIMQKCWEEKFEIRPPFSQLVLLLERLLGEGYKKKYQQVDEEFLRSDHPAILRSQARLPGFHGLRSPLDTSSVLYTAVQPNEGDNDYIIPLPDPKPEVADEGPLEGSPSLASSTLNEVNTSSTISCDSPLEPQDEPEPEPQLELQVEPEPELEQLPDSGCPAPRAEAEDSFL

SMILES	Fik Kinase %Inhibition (FLK-1 receptor)	PDGF Kinase %Inhibition (PDGF-R)	Met Kinase % Inhibition (MET)
Cc1c(Br)ccc2c1C(=Cc1ccc([N+](=O)[O-])c(O)c1)C(=O)N2 [10724/C04]	-18.6%	24.4%	84.3%
COc1ccc(Br)c(C=C2C(=O)Nc3c(Br)cc(Br)cc32)c1O [10725/A03]	3.6%	5.9%	68.0%
Cc1c(Br)ccc2c1C(=Cc1cc3ccccc3o1)C(=O)N2 [10724/C07]	-1.2%	22.3%	14.2%
CC(C)c1cc(C=C2C(=O)Nc3ccc(I)cc32)cc(C(C)C)c1O [10724/B06]	13.4%	43.2%	52.1%
O=C1Nc2ccc(S(=O)(=O)N3CCOCC3)cc2C1=Cc1ccc(F)cc1 [10717/F05]	3.2%	–	21.5%
Cc1c(Br)cc(Br)c2c1C(=Cc1c[nH]cn1)C(=O)N2 [10725/A11]	-21.9%	18.9%	49.1%
O=C1Nc2ccc(I)cc2C1=Cc1c(Br)cnn1-c1ccc(Cl)cc1 [10725/B10]	5.1%	26.0%	69.9%
O=C1Nc2ccc(CCCl)cc2C1=Cc1ccc([N+](=O)[O-])c(O)c1 [10724/G04]	-7.9%	-12.4%	71.0%
CC(C)(C)c1cc(C=C2C(=O)Nc3ccc(CCCl)cc32)c(O)c(C(C)(C)C)c1 [10723/G11]	-4.1%	-7.7%	39.4%
O=C1Nc2c(Br)cc(Br)cc2C1=Cc1ccc(N2CCOCC2)cc1 [10725/A08]	-2.9%	14.1%	45.3%
O=C1Nc2c(Br)cc(Br)cc2C1=Cc1cc2ccccc2o1 [10724/A07]	3.7%	16.1%	58.7%
COc1ccc(Br)c(C=C2C(=O)Nc3ccc(I)cc32)c1O [10725/B03]	4.9%	7.8%	70.8%
O=C1Nc2ccc(S(=O)(=O)Nc3ccc(C(F)(F)F)cc3)cc2C1=Cc1cc2c3c(c1O)CCCN3CCC2 [10724/E05]	13.8%	-7.6%	70.3%
O=C1Nc2ccc(S(=O)(=O)N3CCOCC3)cc2C1=Cc1cccs1 [10717/F03]	0.5%	–	42.8%
CN(C)c1ccc(C=C2C(=O)Nc3c(Br)cc(Br)cc32)c2ccccc12 [10724/A02]	1.8%	6.3%	61.7%
Cc1c(Br)cc(Br)c2c1C(=Cc1c(Br)cnn1-c1ccc(Cl)cc1)C(=O)N2 [10725/A10]	-3.2%	33.7%	43.2%
CCc1ccc(C=C2C(=O)Nc3ccc(Br)c(C)c32)o1 [10724/C10]	-2.3%	27.2%	91.2%
CN(C)c1ccc(C=C2C(=O)Nc3ccc(S(=O)(=O)Nc4ccc(C(F)(F)F)cc4)cc32)c2ccccc12 [10724/E02]	17.7%	-54.2%	55.4%
O=C1Nc2ccc(I)cc2C1=Cc1cccn1-c1ccc(Cl)cc1 [10724/B09]	3.5%	25.8%	43.8%
CCOc1ccccc1C=C1C(=O)Nc2ccc(S(=O)(=O)N3CCOCC3)cc21 [10717/F02]	2.2%	–	30.4%
Cc1csc2sc(C=C3C(=O)Nc4ccc(I)cc43)c(C)c12 [10724/B11]	9.0%	23.0%	43.0%
O=C1Nc2c(Br)cc(Br)cc2C1=Cc1sccc1Br [10725/A02]	-2.0%	-14.2%	46.6%
O=C1Nc2ccc(I)cc2C1=Cc1cc2ccccc2o1 [10724/B07]	-1.8%	27.2%	57.9%
O=C1Nc2ccc(I)cc2C1=Cc1sccc1Br [10725/B02]	-2.8%	-7.5%	66.9%
O=C1Nc2ccc(I)cc2C1=Cc1c[nH]cn1 [10725/B11]	-42.3%	66.3%	76.3%

SMILES	Fik Kinase %Inhibition (FLK-1 receptor)	PDGF Kinase %Inhibition (PDGF-R)	Met Kinase % Inhibition (MET)
CC(C)c1cc(C=C2C(=O)Nc3c(Br)cc(Br)cc32)cc(C(C)C)c1O [10724/A06]	-3.7%	30.7%	46.8%
Cc1c(Br)ccc2c1C(=Cc1cc3c4c(c1O)CCCN4CCC3)C(=O)N2 [10724/C05]	-18.6%	20.3%	67.7%
CN(C)c1ccc(C=C2C(=O)Nc3ccc(CCCl)cc32)c2ccccc12 [10724/G02]	15.1%	-7.6%	44.9%
COC(=O)Cc1c(Cl)[nH]c(C=C2C(=O)Nc3ccc(I)cc32)c1C(=O)OC [10725/B09]	0.4%	43.8%	65.7%
COc1cccc(O)c1C=C1C(=O)Nc2ccc(S(=O)(=O)Nc3ccc(C(F)(F)F)cc3)cc21 [10717/E10]	4.7%	–	35.9%
O=CN1CCN(c2ccc(C=C3C(=O)Nc4ccc(I)cc43)cc2)CC1 [10725/B07]	24.6%	100.8%	74.0%
Cn1cccc1C=C1C(=O)Nc2ccc(S(=O)(=O)N3CCOCC3)cc21 [10717/F04]	-0.1%	–	11.4%
CNS(=O)(=O)c1ccc2c(c1)C(=Cc1cc3ccccc3o1)C(=O)N2 [10724/D07]	-2.6%	7.0%	38.1%
COc1cc(C)cc(O)c1C=C1C(=O)Nc2c(Br)cc(Br)cc21 [10725/A06]	-7.3%	40.9%	71.7%
O=C1Nc2ccc(CCCl)cc2C1=Cc1cccn1-c1ccc(Cl)cc1 [10724/G09]	9.1%	-18.0%	-2.8%
O=C1Nc2c(Br)cc(Br)cc2C1=Cc1cccn1-c1ccc(Cl)cc1 [10724/A09]	-5.2%	19.6%	37.5%
COC(=O)Cc1c(Cl)[nH]c(C=C2C(=O)Nc3c(Br)cc(Br)c(C)c32)c1C(=O)OC [10725/A09]	-13.9%	29.4%	44.3%
Cc1c(Br)ccc2c1C(=Cc1ccc(O)c([N+](=O)[O-])c1)C(=O)N2 [10724/C03]	-20.3%	4.3%	68.7%
COc1cc(C)cc(O)c1C=C1C(=O)Nc2ccc(I)cc21 [10725/B06]	-0.5%	31.3%	53.3%
CC(C)c1cc(C=C2C(=O)Nc3ccc(S(=O)(=O)Nc4ccc(C(F)(F)F)cc4)cc32)cc(C(C)C)c1O [10724/E06]	8.3%	6.3%	25.8%
O=C1Nc2c(Br)cc(Br)cc2C1=Cc1ccc([N+](=O)[O-])c(O)c1 [10724/A04]	-15.9%	5.0%	62.6%
O=C1Nc2ccc(S(=O)(=O)Nc3ccc(C(F)(F)F)cc3)cc2C1=Cc1cc2ccccc2o1 [10724/E07]	-3.6%	0.1%	46.8%
CNS(=O)(=O)c1ccc2c(c1)C(=Cc1cc(C(C)C)c(O)c(C(C)C)c1)C(=O)N2 [10724/D06]	12.4%	40.4%	23.0%
Cc1c(Br)ccc2c1C(=Cc1ccc(N(C)C)c3ccccc13)C(=O)N2 [10724/C02]	-0.3%	-9.0%	40.7%
O=C1Nc2ccc(S(=O)(=O)Nc3ccc(C(F)(F)F)cc3)cc2C1=Cc1cccn1-c1ccc(Cl)cc1 [10724/E09]	14.3%	21.0%	27.0%
Cn1cccc1C=C1C(=O)Nc2c(Br)cc(Br)cc21 [10717/A04]	-4.5%	–	37.4%
O=C1Nc2ccc(S(=O)(=O)Nc3ccc(C(F)(F)F)cc3)cc2C1=Cc1ccc[nH]1 [10717/E09]	-1.1%	–	19.2%
Cc1[nH]c(C=C2C(=O)Nc3ccc(S(=O)(=O)Nc4ccc(C(F)(F)F)cc4)cc32)c(Br)c1Br [10717/E11]	8.9%	–	75.1%
O=C1Nc2ccc(S(=O)(=O)N3CCOCC3)cc2C1=Cc1c[nH]c2ccccc12 [10717/F06]	8.9%	–	49.0%

— patent EP1247803A2, “Indolinone compounds suitable for modulation of protein kinases” (Sugen, Inc., priority 1996, dated 1998)
